Test results from patent publication US20180147206A1, “ACTIVATION OF NEURONAL STORE-OPERATED CALCIUM ENTRY PATHWAY FOR THE TREATMENT OF ALZHEIMER'S DISEASE” (The Board of Regents of the University of Texas System, priority 2015, published 2018).

Legend:
[1] = tested on: spine nSOC channels; test: GCamp5.3 Ca2+ imaging of synaptic nSOC in cultured hippocampal neurons; assay type: cell-based, mouse
[2] = tested on: mushroom spines of hippocampal neurons; test: Dendritic spine analysis in primary hippocampal neural cultures; assay type: cell-based, mouse; details: for mushroom spine loss: 30 nM for 16 hours
Experimental: FIGS. 4A-E. NSN21778 and Hyperforin rescue synaptic nSOC and mushroom spine loss in AD hippocampal neurons. (FIG. 4A) Chemical structure of NSN21778 and Hyperforin. (FIG. 4B) Time-course of GCaMP5.3 fluorescence signal changes in the spines of wild-type, PS1KI and APPKI hippocampal neurons. The time of extracellular Ca^2+ re-addition is indicated by a black bar above the traces. 100 μM DHPG was added 50 sec prior to Ca^2+ re-addition. The results are shown for control (CON) neurons and for neurons pretreated with 300 nM NSN21778 (+NSN) or 300 nM Hyperforin (+Hyp) for 30 min as indicated. For each experimental group individual spine (grey) and average (red) fluorescence traces are shown. (FIG. 4C) The average nSOC spine peak amplitude is shown for each group of cells shown on panel B. The mean AF/Fo signals for each group and presented as mean±SE (n≥45 spines). ***, p <0.001. (FIG. 4D) Confocal images of wild-type, PS1KI and APPKI hippocampal neurons transfected with TD-Tomato and fixed at DIV15-16. The images are shown for control neurons (CON) and for neurons treated with 30 nM NSN21778 (+NSN) or 30 nM Hyperforin (+Hyp) for 16 hours prior to fixation. Scale bar is 10 μm. (FIG. 4E) The average fraction of mushroom spines for each group of cells shown on FIG. 4D is presented as mean±SE (n≥18 neurons). ***, p <0.001.
FIGS. 5A-E. TRPC6 is a molecular target for NSN21778 and Hyperforin. (FIGS. 5A-B) Time course of Fura-2 Ca^2+ signals is shown for HEK293 cells transfected with EGFP plasmid (GFP) or combination of EGFP and TRPC6 plasmids (TRPC6). Cells were incubated in ACSF media containing 2 mM Ca^2+. In experiments shown in FIG. 5B, cells were moved to modified ACSF media containing 0.1 mM Ca^2+ for 2 min and then returned to the media containing 2 mM Ca^2+ with addition of 100 μM OAG. The time of addition of 1 μM Hyperforin (Hyp) or NSN21778 (NSN) is indicated by red bars above the Fura-2 traces. For each experimental group individual spine (grey) and average (red) fluorescence traces are shown. (FIG. 5C) The average Ca^2+ influx peak is shown for experiments presented on FIGS. 5A-B as mean±SE (n≥81). (FIG. 5D) Confocal images of wild-type and PS1KI hippocampal neurons transfected with TD-Tomato and fixed at DIV15-16. The neurons were infected with lentiviruses encoding control RNAi (siCtrl), RNAi against TRPC6 (siT6) or RNAi against Orai2 (siO2). The images are shown for no drug treated neurons (CON) and for neurons treated with 30 nM NSN21778 (+NSN) or 30 nM Hyperforin (+Hyp) for 16 hours prior to fixation. Scale bar is 10 μm. No drug treated group of wild-type and PS1KI neurons is from the same experiment as shown on FIG. 2A-J. (FIG. 5E) The average fraction of mushroom spines for each group of cells shown on panel A is presented as mean±SE (n≥19 neurons). ***, p <0.001.
Dendritic Spine Analysis in Primary Hippocampal Neural Cultures. The hippocampal cultures of PS1KI, APPKI and WT mice were established from postnatal day 0-1 pups and maintained in culture as the inventors described previously [Zhang, 2010 #5733]. For assessment of synapse morphology, hippocampal cultures were transfected with TD-Tomato plasmid at DIV7 using the calcium phosphate method and fixed (4% formaldehyde, 4% sucrose in PBS, pH 7.4) at DIV15-16. A Z-stack of optical section was captured using 100× objective with a confocal microscope (Carl Zeiss Axiovert 100M with LSM510). 18-20 cultured neurons from three batches of cultures were used for quantitative analysis per genotype. Quantitative analysis for dendritic spines was performed by using NeuronStudio software package [Rodriguez, 2008 #6276]. To classify the shape of neuronal spines in culture, the inventors adapted an algorithm from published method [Rodriguez, 2008 #6276]. In classification of spine shapes the inventors used the following cutoff values: aspect ratio for thin spines (AR_thin(crio))=2.5, head to neck ratio (HNR(crit))=1.4, and head diameter (HD(crit))=0.5 μm. […]

[3] = target: T1, TRPC6 (Homo sapiens, UniProt Q9Y210); test: Fura-2 Ca2+ imaging in TRPC6-transfected HEK293 cells; assay type: cell-based; details: for Ca2+ influx: 1 μM; for Ca2+ influx response: TRPC6-transfected cells, 100 μM
T1 construct: expressed in transfected cells; host or cells: HEK293
T1 sequence (Q9Y210 1-931): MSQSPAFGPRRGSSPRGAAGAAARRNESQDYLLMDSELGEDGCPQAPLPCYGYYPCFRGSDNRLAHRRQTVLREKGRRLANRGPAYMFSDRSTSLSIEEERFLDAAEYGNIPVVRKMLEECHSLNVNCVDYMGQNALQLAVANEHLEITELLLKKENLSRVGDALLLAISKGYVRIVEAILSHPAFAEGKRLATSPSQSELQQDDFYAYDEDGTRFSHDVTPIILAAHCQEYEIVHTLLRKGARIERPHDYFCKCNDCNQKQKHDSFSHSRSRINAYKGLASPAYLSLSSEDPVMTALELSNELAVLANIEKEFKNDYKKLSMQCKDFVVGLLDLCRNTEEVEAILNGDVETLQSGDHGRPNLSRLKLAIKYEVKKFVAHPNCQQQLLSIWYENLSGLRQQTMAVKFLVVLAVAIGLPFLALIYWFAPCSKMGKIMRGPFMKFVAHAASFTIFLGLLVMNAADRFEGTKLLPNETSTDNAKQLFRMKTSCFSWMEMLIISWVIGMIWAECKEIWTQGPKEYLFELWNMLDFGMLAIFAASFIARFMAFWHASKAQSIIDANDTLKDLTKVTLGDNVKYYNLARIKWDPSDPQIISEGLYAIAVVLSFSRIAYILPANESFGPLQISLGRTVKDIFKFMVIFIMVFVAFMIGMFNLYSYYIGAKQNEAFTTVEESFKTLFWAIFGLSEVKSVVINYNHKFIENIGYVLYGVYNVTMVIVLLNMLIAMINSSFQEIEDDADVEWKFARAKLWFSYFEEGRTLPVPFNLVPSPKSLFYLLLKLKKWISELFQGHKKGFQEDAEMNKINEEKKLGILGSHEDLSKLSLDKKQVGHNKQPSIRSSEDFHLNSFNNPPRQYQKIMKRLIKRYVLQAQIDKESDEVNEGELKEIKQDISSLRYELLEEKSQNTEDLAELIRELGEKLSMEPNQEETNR

[4] = tested on: hippocampal neurons
[5] = tested on: AβPPSwe/PSEN1ΔE9 (AβPP/PS1) transgenic mice; details: previous studies; cited from earlier work
[6] = tested on: TRPC3/6/7 channels; details: recent study (Montecinos-Oliva et al., 2014); cited from earlier work

CC(C)=CCC[C@]1(C)[C@@H](CC=C(C)C)C[C@@]2(CC=C(C)C)C(=O)[C@]1(C(=O)C(C)C)C(=O)C(CC=C(C)C)=C2O [Hyperforin]
spine nSOC ([1]; PS1KI and APPKI hippocampal neurons, 300 nM applied prior to Ca2+ re-addition): rescued spine nSOC
spine nSOC ([1]; wild-type spines, 300 nM): no significant effect
mushroom spines ([2]; PS1KI and APPKI neurons, 30 nM for 16 hr): complete rescue
mushroom spine loss ([2]; PS1KI cultures infected with control RNAi lentiviruses): rescued mushroom spine loss
mushroom spine loss ([2]; PS1KI hippocampal neurons following knockdown of TRPC6 or Orai2): failed to rescue mushroom spine loss
mushroom spine loss ([2]; wild-type neurons with knockdown of TRPC6 or Orai2): failed to rescue
fraction of mushroom spines ([2]; wild-type neurons, 30 nM for 16 hr): no significant effect
Ca2+ influx ([3]; TRPC6-transfected HEK293 cells, 2 mM Ca2+): activated Ca^2+ influx
Ca2+ influx ([3]; control HEK293 cells transfected with EGFP plasmid): not in control cells
toxicity, acute [4]: very large Ca^2 elevations and toxicity
toxicity, overnight [4]: neuronal toxicity in some batches
beta-amyloid neurotoxicity and spatial memory impairments [5]: able to prevent

tetrahydrohyperforin [IDN5706]
Aβ-induced synaptic plasticity defects [6]: rescued

CCCCCCCC/C=C/CCCCCCCC(=O)OCC(CO)OC(C)=O (stereo not shown) [OAG]
Ca2+ responses in spines ([1]; direct application to hippocampal neuronal cultures (data not shown)): induced Ca^2+ responses in just a few spines
Ca2+ influx response ([3]; standard recording conditions (data not shown)): highly variable responses
Ca2+ influx response ([3]; stores partially depleted by 0.1 mM Ca2+ preincubation): more consistent responses
